Data: PubChem BioAssay AID330 (DTP/NCI, 2004)
“And” between values parts separate entries of the source, which are not always exact repeats. Equal entries are not always repeated. Inconclusive results and toxic doses are left out. How the source made its calls: active means survival T/C of 150% or more; inactive means T/C below 125% in these data.

System: P388 leukemia ip, CD2F1 mice, survival T/C
Assay: NCI In Vivo Anticancer Drug Screen. Data for tumor model P388 Leukemia (intraperitoneal) in CD2F1 (CDF1) mice
Conditions: endpoint: median survival time, higher = longer survival
Outline: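 Mice carrying the transplanted tumor received test compound or vehicle. Survival was recorded in each group, and the value is the treated-group measurement divided by that of the vehicle-treated control group.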

[1] = dose: 50.0 mg/kg/injection, schedule: Q01DX005 (ip), vehicle: saline with Tween-80
[2] = dose: 50.0 mg/kg/injection, schedule: Q01DX009 (ip), vehicle: Klucel (hydroxypropylcellulose) (HPC)
[3] = dose: 100.0 mg/kg/injection, schedule: Q01DX009 (ip), vehicle: Klucel (hydroxypropylcellulose) (HPC)
[4] = dose: 6.25 mg/kg/injection, schedule: Q01DX009 (ip), vehicle: Klucel (hydroxypropylcellulose) (HPC)
[5] = dose: 12.5 mg/kg/injection, schedule: Q01DX009 (ip), vehicle: Klucel (hydroxypropylcellulose) (HPC)
[6] = dose: 100.0 mg/kg/injection, schedule: Q01DX005 (ip), vehicle: saline with Tween-80
[7] = dose: 200.0 mg/kg/injection, schedule: Q01DX005 (ip), vehicle: saline with Tween-80
[8] = dose: 60.0 mg/kg/injection, schedule: Q01DX005 (ip), vehicle: saline with Tween-80
[9] = dose: 120.0 mg/kg/injection, schedule: Q01DX005 (ip), vehicle: saline with Tween-80
[10] = dose: 50.0 mg/kg/injection, schedule: Q01DX005 (ip), vehicle: Klucel (hydroxypropylcellulose) (HPC)
[11] = dose: 100.0 mg/kg/injection, schedule: Q01DX005 (ip), vehicle: Klucel (hydroxypropylcellulose) (HPC)
[12] = dose: 200.0 mg/kg/injection, schedule: Q01DX005 (ip), vehicle: Klucel (hydroxypropylcellulose) (HPC)

Measured: T/C

COc1ccc([P+](CCN2C(=O)c3ccccc3C2=O)(c2ccc(OC)cc2)c2ccc(OC)cc2)cc1
inactive: dose: 0.78 mg/kg/injection, schedule: Q01DX009 (ip), vehicle: water 121 % of control | dose: 1.56 mg/kg/injection, schedule: Q01DX009 (ip), vehicle: water 114 % of control | dose: 2.7 mg/kg/injection, schedule: Q01DX009 (ip), vehicle: water 116 % of control | dose: 3.13 mg/kg/injection, schedule: Q01DX009 (ip), vehicle: water 121 % of control | dose: 12.5 mg/kg/injection, schedule: Q01DX009 (ip), vehicle: water 92 % of control

CCOC(=O)NN(C(=O)OCC)C1CCN=C1C(=O)OC (stereo not given)
inactive: dose: 50.0 mg/kg/injection, schedule: Q01DX005 (ip), vehicle: saline 98 % of control | dose: 100.0 mg/kg/injection, schedule: Q01DX005 (ip), vehicle: saline 88 % of control | dose: 200.0 mg/kg/injection, schedule: Q01DX005 (ip), vehicle: saline 98 % of control

COc1ccc(OC)c(CCc2cc(OC)ccc2OC)c1
inactive: dose: 0.78 mg/kg/injection, schedule: Q01DX009 (ip), vehicle: DMSO 88 % of control | dose: 6.25 mg/kg/injection, schedule: Q01DX009 (ip), vehicle: DMSO 92 % of control | dose: 25.0 mg/kg/injection, schedule: Q01DX009 (ip), vehicle: DMSO 94 % of control | dose: 50.0 mg/kg/injection, schedule: Q01DX009 (ip), vehicle: DMSO 109 % of control

CC1/C=C/C=C/CC/C=C/C=C/C=C/C=C/C(OC2OC(C)C(O)C(N)C2O)CC2OC(CC(O)C(O)CCC(O)CC(O)CC(O)CC(=O)OC(C)C(C)C1O)CC(O)C2C(=O)O (stereo not given)
inactive: dose: 6.25 mg/kg/injection, schedule: Q01DX005 (ip), vehicle: saline with Tween-80 95 % of control | dose: 9.5 mg/kg/injection, schedule: Q01DX009 (ip), vehicle: saline sonified 100 % of control | dose: 12.5 mg/kg/injection, schedule: Q01DX005 (ip), vehicle: saline with Tween-80 109 % of control | dose: 19.0 mg/kg/injection, schedule: Q01DX009 (ip), vehicle: saline sonified 95 % of control | dose: 25.0 mg/kg/injection, schedule: Q01DX005 (ip), vehicle: saline with Tween-80 104 % of control | dose: 38.0 mg/kg/injection, schedule: Q01DX009 (ip), vehicle: saline sonified 100 % of control | [1] 95 % of control

O=C1CSC(c2ccc(Cl)cc2)N1N1C(=O)CSC1c1ccc(Cl)cc1 (stereo not given)
inactive: dose: 60.0 mg/kg/injection, schedule: Q01DX005 (ip), vehicle: Klucel (hydroxypropylcellulose) (HPC) 99 % of control | dose: 120.0 mg/kg/injection, schedule: Q01DX005 (ip), vehicle: Klucel (hydroxypropylcellulose) (HPC) 91 % of control | dose: 240.0 mg/kg/injection, schedule: Q01DX005 (ip), vehicle: Klucel (hydroxypropylcellulose) (HPC) 90 % of control

COc1ccccc1C(O)(C(F)(F)F)C(F)(F)F
inactive: [2] 101 % of control | [3] 98 % of control | dose: 200.0 mg/kg/injection, schedule: Q01DX009 (ip), vehicle: Klucel (hydroxypropylcellulose) (HPC) 95 % of control

C[Si]1(C)CC[Si](C)(C)OS(=O)(=O)O1
inactive: dose: 27.5 mg/kg/injection, schedule: Q01DX005 (ip), vehicle: Klucel (hydroxypropylcellulose) (HPC) 102 % of control | dose: 55.0 mg/kg/injection, schedule: Q01DX005 (ip), vehicle: Klucel (hydroxypropylcellulose) (HPC) 100 % of control

O=c1[nH]c(=O)c2cccnc2[nH]1
inactive: [4] 93 % of control | [5] 99 % of control | dose: 25.0 mg/kg/injection, schedule: Q01DX009 (ip), vehicle: Klucel (hydroxypropylcellulose) (HPC) 121 % of control and 93 % of control | [2] 118 % of control | [3] 99 % of control

Cn1cc(CCc2cc[n+](CCC[n+]3ccc(CCc4cn(C)c5ccccc45)cc3)cc2)c2ccccc21
inactive: [4] 104 % of control | [5] 106 % of control

CC(NNC(=S)N1CCCC1)c1cccc[n+]1[O-] (stereo not given)
inactive: [1] 101 % of control | [6] 100 % of control | [7] 94 % of control

Cc1ccc(S(=O)(=O)N/N=C/c2c(Cl)n(C)c3ccccc23)cc1
inactive: dose: 100.0 mg/kg/injection, schedule: Q01DX001 (ip), vehicle: Klucel (hydroxypropylcellulose) (HPC) 91 % of control | dose: 200.0 mg/kg/injection, schedule: Q01DX001 (ip), vehicle: Klucel (hydroxypropylcellulose) (HPC) 97 % of control | dose: 400.0 mg/kg/injection, schedule: Q01DX001 (ip), vehicle: Klucel (hydroxypropylcellulose) (HPC) 100 % of control

N#Cc1ccc(OC(=O)Nc2ccccc2C(F)(F)F)cc1
inactive: [8] 86 % of control | [9] 87 % of control

O=C1C=C(N2CC2)c2ccccc2C1=O
inactive: dose: 6.25 mg/kg/injection, schedule: Q01DX009 (ip), vehicle: saline with Tween-80 118 % of control | dose: 6.25 mg/kg/injection, schedule: Q04DX003 (ip), vehicle: saline with Tween-80 110 % of control | dose: 8.33 mg/kg/injection, schedule: Q01DX009 (ip), vehicle: saline with Tween-80 118 % of control | dose: 12.5 mg/kg/injection, schedule: Q04DX003 (ip), vehicle: saline with Tween-80 120 % of control

COc1cc(/C=N\NC(=O)C(C)SC(C)C(=O)N/N=C/c2cc(OC)c(OC)c(OC)c2)cc(OC)c1OC (stereo not given)
inactive: [10] 93 % of control | [11] 88 % of control | [12] 90 % of control

CCCCCCCCCCCCCCCCCC[N+]1(CC)CCCCC1
inactive: dose: 0.04 mg/kg/injection, schedule: Q01DX009 (ip), vehicle: saline 95 % of control | dose: 0.09 mg/kg/injection, schedule: Q01DX009 (ip), vehicle: saline 92 % of control | dose: 0.19 mg/kg/injection, schedule: Q01DX009 (ip), vehicle: saline 103 % of control and 118 % of control | dose: 0.39 mg/kg/injection, schedule: Q01DX009 (ip), vehicle: saline 113 % of control and 120 % of control | dose: 0.78 mg/kg/injection, schedule: Q01DX009 (ip), vehicle: saline 99 % of control

CC1/C(=N\Nc2ccc([N+](=O)[O-])cc2)CC2C3(C)CCC2(C(C)C(=O)O)C(=O)C13 (stereo not given)
inactive: dose: 100.0 mg/kg/injection, schedule: Q04DX003 (ip), vehicle: saline 93 % of control | dose: 200.0 mg/kg/injection, schedule: Q04DX003 (ip), vehicle: saline 93 % of control | dose: 400.0 mg/kg/injection, schedule: Q04DX003 (ip), vehicle: saline 95 % of control

Cc1nn(C)c(=S)[nH]c1=O
inactive: [10] 103 % of control | [1] 105 % of control | [11] 95 % of control | [6] 106 % of control | [12] 110 % of control | [7] 103 % of control

COC(=O)C(CSCc1ccccc1)NC(=O)CCNC(=O)c1ccccc1 (stereo not given)
inactive: dose: 12.5 mg/kg/injection, schedule: Q01DX009 (ip), vehicle: distilled water + Tween-80 100 % of control | dose: 25.0 mg/kg/injection, schedule: Q01DX009 (ip), vehicle: distilled water + Tween-80 94 % of control | dose: 50.0 mg/kg/injection, schedule: Q01DX009 (ip), vehicle: distilled water + Tween-80 98 % of control | dose: 100.0 mg/kg/injection, schedule: Q01DX009 (ip), vehicle: distilled water + Tween-80 91 % of control | dose: 200.0 mg/kg/injection, schedule: Q01DX009 (ip), vehicle: distilled water + Tween-80 111 % of control

O=C(c1ccccc1)N1OCCCc2ccccc21
inactive: [8] 104 % of control | [9] 96 % of control | dose: 240.0 mg/kg/injection, schedule: Q01DX005 (ip), vehicle: saline with Tween-80 91 % of control

Clc1nc(Cl)c2[nH]c(Cl)nc2n1
inactive: [10] 99 % of control | [11] 99 % of control | [12] 102 % of control

CC(C)N(B1NCC(C)N1C(C)C)C(C)C (stereo not given)
inactive: dose: 100.0 mg/kg/injection, schedule: Q01DX001 (ip), vehicle: saline 101 % of control | dose: 200.0 mg/kg/injection, schedule: Q01DX001 (ip), vehicle: saline 102 % of control | dose: 400.0 mg/kg/injection, schedule: Q01DX001 (ip), vehicle: saline 100 % of control

Oc1c(CNCc2ccc(Cl)c(Cl)c2)ccc2cccnc12
inactive: dose: 100.0 mg/kg/injection, schedule: Q04DX003 (ip), vehicle: Klucel (hydroxypropylcellulose) (HPC) 104 % of control | dose: 200.0 mg/kg/injection, schedule: Q04DX003 (ip), vehicle: Klucel (hydroxypropylcellulose) (HPC) 105 % of control | dose: 400.0 mg/kg/injection, schedule: Q04DX003 (ip), vehicle: Klucel (hydroxypropylcellulose) (HPC) 106 % of control
